This is an account of results in paper PMC6510928, “Characterisation of the Ral GTPase inhibitor RBC8 in human and mouse platelets” (Cellular Signalling, 2019).

For one experiment, the target named is T1, RalB (Homo sapiens, UniProt P11234).
T1 sequence (P11234 1-203): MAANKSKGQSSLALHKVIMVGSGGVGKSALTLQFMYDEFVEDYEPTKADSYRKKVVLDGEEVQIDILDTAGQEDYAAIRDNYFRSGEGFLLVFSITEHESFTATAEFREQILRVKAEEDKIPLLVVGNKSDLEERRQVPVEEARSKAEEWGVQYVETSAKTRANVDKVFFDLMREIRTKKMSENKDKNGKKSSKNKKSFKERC
As to the kind of experiment: GST-RalBP1 pulldown of RalB-GTP from RBC8-treated, CRP-stimulated human platelets, immunoblot densitometry. The experiment is classed as cell-based. A general note: In western blotting, separated proteins are transferred to a membrane and probed.

In another experiment the target is T2, RalA (Homo sapiens, UniProt P11233).
T2 sequence (P11233 1-203): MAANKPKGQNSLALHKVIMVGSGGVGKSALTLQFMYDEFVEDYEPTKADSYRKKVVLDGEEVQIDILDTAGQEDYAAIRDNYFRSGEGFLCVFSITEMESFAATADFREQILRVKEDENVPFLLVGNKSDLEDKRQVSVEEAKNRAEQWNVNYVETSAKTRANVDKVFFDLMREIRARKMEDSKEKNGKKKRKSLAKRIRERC
As to the kind of experiment: GST-RalBP1 pulldown of RalA-GTP from RBC8-treated, CRP-stimulated human platelets, immunoblot densitometry. The experiment is classed as cell-based.

Take `COc1ccc(OC)c(C2C(C#N)=C(N)Oc3n[nH]c(-c4ccc5ccccc5c4)c32)c1` (centres unmarked) [RBC8]: the IC50 (as a rule, the midpoint of a concentration-inhibition curve) stood at 2.3 µM on RalB and 2.2 µM on RalA.
